Test results from patent US20240252651A1, “METHOD OF DELIVERING NUCLEIC ACIDS INTO CELLS” (GUANGZHOU LIDE BIOMEDICINE TECHNOLOGY CO., LTD., priority 2021, published 2024).
Entries after “also recorded” stand apart in the source; their conditions may differ.

Assays:
Hela cells [1] = assay: Transfection of GFP-expressing plasmid DNA in Hela cells (flow cytometer); type: cell-based, human; settings: plasmid DNA 0.5 μg/well, material 0.25 to 8 μg/well (dosages per FIG. 4), 24 h
Method: In this experiment, with GFP-expressing plasmid DNA as a reporter gene, a gene transfection efficiency of a cationic lipid analog material in Hela cells was detected. A specific method was as follows:
Hela cells were inoculated in a 24-well plate and cultured in an incubator for 12 h; each of different cationic lipid analog materials (0.25 μg/well to 8 μg/well) was mixed with GFP-expressing plasmid DNA (0.5 μg/well) in 40 μL of a sodium acetate buffer (25 mM, pH 5.2), and resulting mixtures each were allowed to stand for 10 min and then diluted with 460 μL of an Opti-MEM medium to obtain plasmid DNA-loaded cationic lipid analog complex particle solutions; a medium for the Hela cells in the plate was removed, then the HeLa cells were washed once with PBS, and the complex particle solutions were added; and the cells were cultured for 24 h, and then a plasmid DNA transfection efficiency in cells was analyzed by a flow cytometer. A commercial gene transfection reagent Lipofectamine 2000 was adopted as a positive control.

DC 2.4 cells = assay: Transfection of eGFP-mRNA in DC 2.4 cells (FCM and LSCM); type: cell-based, mouse; settings: mRNA 0.2 μg/well, material 0.25 to 2 μg/well (dosages per FIG. 7), 24 h
Method: In this experiment, with eGFP-mRNA as model mRNA, an mRNA transfection efficiency of a cationic lipid analog material in DC 2.4 cells was detected. A specific operation method was as follows:
DC 2.4 cells were inoculated in a 48-well plate and cultured in an incubator for 12 h; each of different cationic lipid analog materials (0.25 μg/well to 2 μg/well) was mixed with cGFP-expressing mRNA (0.2 μg/well) in 20 μL of a sodium acetate buffer (25 mM, pH 5.2), and resulting mixtures each were allowed to stand for 10 min and then diluted with 230 μL of a Opti-MEM medium to obtain mRNA-loaded complex particle solutions; a medium for the […] were washed once with PBS, and the complex particle solutions were added; and the cells were cultured for 24 h, an mRNA transfection efficiency in cells was observed by FCM and LSCM. A commercial gene transfection reagent Lipofectamine 2000 was adopted as a positive control.

Hela cells [2] = assay: Transfection of luciferase-expressing plasmid DNA in HeLa cells (luciferase expression); type: cell-based, human; settings: plasmid DNA 0.5 μg, 24 h, luciferase expression level, FIG. 5
Method: In this example, with luciferase-expressing plasmid DNA as a reporter gene, a gene transfection efficiency of a cationic lipid analog material in HeLa cells was detected. A specific operation method was as follows: Hela cells were inoculated in a 96-well plate and cultured in an incubator for 12 h; each of different cationic lipid analog materials was mixed with luciferase-expressing plasmid DNA (0.5 μg) in 40 μL of a sodium acetate buffer (25 mM, pH 5.2), and resulting mixtures each were allowed to stand for 10 min and then diluted with 460 μL of an Opti-MEM medium to obtain plasmid DNA-loaded cationic lipid analog complex particle solutions; a medium for the Hela cells in the plate was removed, then the Hela cells were washed once with PBS, and the complex particle solutions were added in a volume of 125 μL; the cells were cultured for 24 h, then a resulting culture supernatant was discarded, and the cells were fully lysed; and a substrate was added at 50 μl/well, and an expression level of luciferase was detected by a multi-mode microplate reader.

A549 cells (A549-Luc) = assay: siRNA transfection, luciferase gene silencing in A549-Luc cells; type: cell-based, human; settings: final siRNA 100 nM, material 0.5 to 3 μg/well, 48 h, FIG. 10
Method: In this experiment, with I2R2C18-1A1, I2R3C18-1A1, I2R2C18-2A1, and I2R3C18-2A1 as representative cationic lipid analog materials, siRNA transfection and delivery effects of the cationic lipid analog materials were detected in A549 cells (A549-Luc). A specific operation method was as follows:
Luciferase-expressing A549 cells (A549-Luc) were inoculated in a 96-well plate and cultured in an incubator for 12 h; each of different materials (0.5 μg/well to 3 μg/well) was mixed with siRNA in 40 μL of a sodium acetate buffer (25 mM, pH 5.2), and resulting mixtures each were allowed to stand for 10 min and then diluted with 460 μL of an Opti-MEM medium to obtain siRNA-loaded complex particle solutions (final siRNA concentration was 100 nM); a medium for the A549-Luc cells in the plate was removed, then the A549-Luc cells were washed once with PBS, and the complex particle solutions each were added in a volume of 125 μL; the cells were cultured for 48 h, then a resulting culture supernatant was discarded, and the cells were fully lysed; and a substrate was added at 50 μl/well, and an expression level of luciferase was detected by a multi-mode microplate reader.

Row | SMILES | transfection efficiency of GFP-expressing plasmid DNA, compared with commercial transfection reagent Lipofectamine 2000 (Hela cells [1]) | mRNA transfection efficiency (eGFP-mRNA), compared with Lipofectamine 2000 (DC 2.4 cells; FIG. 7-9) | transfection efficiency of luciferase-expressing plasmid DNA, compared with Lipofectamine 2000 (Hela cells [2]) | gene silencing efficiency as a function of material dosage (A549 cells (A549-Luc)) | siRNA transfection, silencing of the luciferase reporter gene (A549 cells (A549-Luc)) | transfection efficiency of GFP-expressing plasmid DNA, compared with commercial transfection reagent Lipofectamine 2000 (Hela cells [1]; listed as 11R2C14A1) | mRNA transfection efficiency (eGFP-mRNA), compared with Lipofectamine 2000 (DC 2.4 cells; FIG. 7-9, listed as 11R2C14A1) | transfection efficiency of GFP-expressing plasmid DNA, compared with commercial transfection reagent Lipofectamine 2000 (Hela cells [1]; listed as 11R11C14A1)
1 | CCCCC/C=C\C/C=C\CCCCCCCC(=O)N(CCCN(CC)CC)C(C(=O)NCCOCCOCCNC(=O)C(C(C)C)N(CCCN(CC)CC)C(=O)CCCCCCC/C=C\C/C=C\CCCCC)C(C)C (centres unmarked) [I2R3C18-2A1] | reaches or is higher than; also recorded: equivalent to or higher than | high transfection efficiency; also recorded: equivalent to or higher than | equivalent to or higher than | increases with the increase of a dosage | efficient gene silencing; also recorded: can transfect siRNA into cells to specifically silence the expression of the luciferase reporter gene | – | – | –
2 | CCCCCCCCCCCCCCCC(=O)N(CCCN(CC)CC)C(C(=O)NCCOCCOCCNC(=O)C(C(C)C)N(CCCN(CC)CC)C(=O)CCCCCCCCCCCCCCC)C(C)C (centres unmarked) [I2R3C16A1] | reaches or is higher than; also recorded: equivalent to or higher than | high transfection efficiency; also recorded: equivalent to or higher than | equivalent to or higher than | – | – | – | – | –
3 | CCCCCCCC/C=C\CCCCCCCC(=O)N(CCCN(C)C)C(C(=O)NCCOCCOCCNC(=O)C(C(C)C)N(CCCN(C)C)C(=O)CCCCCCC/C=C\CCCCCCCC)C(C)C (centres unmarked) [I2R2C18-1A1] | reaches or is higher than; also recorded: equivalent to or higher than | high transfection efficiency; also recorded: equivalent to or higher than | equivalent to or higher than | increases with the increase of a dosage | efficient gene silencing; also recorded: can transfect siRNA into cells to specifically silence the expression of the luciferase reporter gene | – | – | –
4 | CCCCCCCC/C=C\CCCCCCCC(=O)N(CCN(C)C)C(C(=O)NCCOCCOCCNC(=O)C(C(C)C)N(CCN(C)C)C(=O)CCCCCCC/C=C\CCCCCCCC)C(C)C (centres unmarked) [I2R1C18-1A1] | reaches or is higher than; also recorded: equivalent to or higher than | high transfection efficiency; also recorded: equivalent to or higher than | equivalent to or higher than | – | – | – | – | –
5 | CCCCCCCCCCCCCC(=O)N(CCCN(C)C)C(C(=O)NCCCCCCNC(=O)C(C(C)C)N(CCCN(C)C)C(=O)CCCCCCCCCCCCC)C(C)C (centres unmarked) [I1R2C14A1] | reaches or is higher than | high transfection efficiency | equivalent to or higher than | – | – | equivalent to or higher than | equivalent to or higher than | –
6 | CCCCCCCCCCCCCCCC(=O)N(CCN(C)C)C(C(=O)NCCOCCOCCNC(=O)C(C(C)C)N(CCN(C)C)C(=O)CCCCCCCCCCCCCCC)C(C)C (centres unmarked) [I2R1C16A1] | reaches or is higher than; also recorded: equivalent to or higher than | high transfection efficiency; also recorded: equivalent to or higher than | equivalent to or higher than | – | – | – | – | –
7 | CCCCCCCCCCCCCC(=O)N(CCCN(C)C)C(C(=O)NCCOCCOCCNC(=O)C(C(C)C)N(CCCN(C)C)C(=O)CCCCCCCCCCCCC)C(C)C (centres unmarked) [I2R2C14A1] | reaches or is higher than; also recorded: equivalent to or higher than | high transfection efficiency; also recorded: equivalent to or higher than | – | – | – | – | – | –
8 | CCCCCCCCCCCCCC(=O)N(CCN(C)C)C(C(=O)NCCOCCOCCNC(=O)C(C(C)C)N(CCN(C)C)C(=O)CCCCCCCCCCCCC)C(C)C (centres unmarked) [I2R1C14A1] | reaches or is higher than; also recorded: equivalent to or higher than | high transfection efficiency; also recorded: equivalent to or higher than | equivalent to or higher than | – | – | – | – | –
9 | CCCCCCCCCCCCCC(=O)N(CCC1CCCN1C)C(C(=O)NCCCCCCNC(=O)C(C(C)C)N(CCC1CCCN1C)C(=O)CCCCCCCCCCCCC)C(C)C (centres unmarked) [I1R11C14A1] | reaches or is higher than | high transfection efficiency; also recorded: equivalent to or higher than | equivalent to or higher than | – | – | – | – | equivalent to or higher than
10 | CCCCCCCCCCCCCCCCCC(=O)N(CCCN(CC)CC)C(C(=O)NCCOCCOCCNC(=O)C(C(C)C)N(CCCN(CC)CC)C(=O)CCCCCCCCCCCCCCCCC)C(C)C (centres unmarked) [I2R3C18A1] | reaches or is higher than; also recorded: equivalent to or higher than | high transfection efficiency; also recorded: equivalent to or higher than | equivalent to or higher than | – | – | – | – | –
11 | CCCCCCCCCCCCCCCCCC(=O)N(CCC1CCCN1C)C(C(=O)NCCOCCOCCNC(=O)C(C(C)C)N(CCC1CCCN1C)C(=O)CCCCCCCCCCCCCCCCC)C(C)C (centres unmarked) [I2R11C18A1] | reaches or is higher than; also recorded: equivalent to or higher than | high transfection efficiency; also recorded: equivalent to or higher than | – | – | – | – | – | –
12 | CCCCC/C=C\C/C=C\CCCCCCCC(=O)N(CCC1CCCN1C)C(C(=O)NCCOCCOCCNC(=O)C(C(C)C)N(CCC1CCCN1C)C(=O)CCCCCCC/C=C\C/C=C\CCCCC)C(C)C (centres unmarked) [I2R11C18-2A1] | reaches or is higher than; also recorded: equivalent to or higher than | high transfection efficiency; also recorded: equivalent to or higher than | equivalent to or higher than | – | – | – | – | –
